In article PMC10947119 (Angewandte Chemie (International Ed. in English), 2023):

Experiments:
MtbPPAT [1] = target: T1, MtbPPAT (Mycobacterium tuberculosis, UniProt P9WPA5); settings: read-out: KD, previous estimates; ITC, near-identical conditions; cited from earlier work
MtbPPAT [2] = target: T1, MtbPPAT; type: binding; settings: for Affinity increase (KD lower) relative to parent indole fragment 12: KD by ITC vs KD of 12
wildtype Mtb H37RvMA = type: cell-based, Mycobacterium tuberculosis
[3] = tested on: PPAT of Mycobacterium abscessus; settings: cited from earlier work
Mycobacterium abscessus = settings: cited from earlier work
MtbPPAT [4] = target: T1, MtbPPAT; test: MtbPPAT activity assay; type: biochemical; settings: 1 mM compound, ATP 120, 240, 500 µM

T1 sequence (P9WPA5 whole entry, looked up, the tested form may be a part): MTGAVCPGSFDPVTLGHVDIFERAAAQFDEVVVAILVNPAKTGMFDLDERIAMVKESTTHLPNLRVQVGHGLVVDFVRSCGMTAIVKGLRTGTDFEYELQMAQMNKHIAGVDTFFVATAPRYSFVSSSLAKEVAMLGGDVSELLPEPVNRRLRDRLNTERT

SMILES | Kd (MtbPPAT [1]) [µM] | Affinity increase (KD lower) relative to parent indole fragment 12 (MtbPPAT [2]) | Effect of ATc on potency (wildtype Mtb H37RvMA) | Affinity for M. abscessus PPAT [3] | Ligand efficiency LE (MtbPPAT [2]; from direct ITC KD, Condition 1 (20 mM NaCl)) [kcal mol^−1 NHA^−1] | Whole-cell activity against M. abscessus (Mycobacterium abscessus) | Mode of inhibition of MtbPPAT activity (MtbPPAT [4])
CC(C)(COP(=O)(O)OP(=O)(O)OC[C@H]1O[C@@H](n2cnc3c(N)ncnc32)[C@H](O)[C@@H]1OP(=O)(O)O)[C@@H](O)C(=O)NCCC(=O)NCCS [CoA, coenzyme A] | ≥ 13 | – | – | – | – | – | –
O=C(O)c1cnn(-c2ccccc2)c1OCCc1c[nH]c2ccccc12 [compound 19] | – | ≈ 25 fold | – | – | – | – | –
O=C(O)c1cnn(-c2ccccc2)c1OCCCc1c[nH]c2ccccc12 [compound 20] | – | ≈ 65 fold | no effect | low‐micromolar affinity | 0.24 | lacked whole‐cell activity | ATP‐competitive manner
